Measured values taken from ChEMBL document CHEMBL1201862, “PubChem BioAssay data set” (2004).
Calls of active or inactive are those of the source.

Assays:
[1] = target: Lysine-specific demethylase 4C (Homo sapiens, UniProt Q9H3R0); assay: inhibition of JMJD2C H3K9me3 demethylation – biochemical, DELFIA europium, cherry-picked samples, dose response (AID 488835); format: functional
[2] = target: Lysine-specific demethylase 4A (Homo sapiens, UniProt O75164); assay: inhibition of JMJD2A H3K9me3 demethylation – biochemical, DELFIA europium, cherry-picked samples, selectivity assay for GASC-1 inhibitor project, dose response (AID 488840)
[3] = target: T1, Mannose-6-phosphate isomerase (Homo sapiens, UniProt P34949); assay: MPI inhibition at elevated mannose 6-phosphate – biochemical, fluorescence intensity, high mannose 6-phosphate, primary screen (AID 1220)
T1 sequence (P34949 whole entry): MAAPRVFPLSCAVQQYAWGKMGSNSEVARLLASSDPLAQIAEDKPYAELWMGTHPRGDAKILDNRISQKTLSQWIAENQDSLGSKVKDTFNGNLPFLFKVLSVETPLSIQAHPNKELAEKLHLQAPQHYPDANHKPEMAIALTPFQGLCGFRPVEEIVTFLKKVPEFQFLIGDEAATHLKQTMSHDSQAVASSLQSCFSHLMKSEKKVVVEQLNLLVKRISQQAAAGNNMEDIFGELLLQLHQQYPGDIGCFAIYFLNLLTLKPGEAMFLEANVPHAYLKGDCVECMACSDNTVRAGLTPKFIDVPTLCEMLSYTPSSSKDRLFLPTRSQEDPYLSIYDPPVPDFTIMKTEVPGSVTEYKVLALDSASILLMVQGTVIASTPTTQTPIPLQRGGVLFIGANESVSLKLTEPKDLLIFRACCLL

[4] = target: Exodeoxyribonuclease V (Escherichia coli (strain K12), UniProt P04993+P07648+P08394); assay: RecBCD inhibition via phage-restricted bacterial growth – absorbance, V66 E. coli, mutant T4 phage, counter-screen for AddAB inhibitor project, dose response (AID 492957); format: functional, cell-based, Escherichia coli str. K-12 substr. MG1655
Exodeoxyribonuclease V, sequence (P04993 whole entry): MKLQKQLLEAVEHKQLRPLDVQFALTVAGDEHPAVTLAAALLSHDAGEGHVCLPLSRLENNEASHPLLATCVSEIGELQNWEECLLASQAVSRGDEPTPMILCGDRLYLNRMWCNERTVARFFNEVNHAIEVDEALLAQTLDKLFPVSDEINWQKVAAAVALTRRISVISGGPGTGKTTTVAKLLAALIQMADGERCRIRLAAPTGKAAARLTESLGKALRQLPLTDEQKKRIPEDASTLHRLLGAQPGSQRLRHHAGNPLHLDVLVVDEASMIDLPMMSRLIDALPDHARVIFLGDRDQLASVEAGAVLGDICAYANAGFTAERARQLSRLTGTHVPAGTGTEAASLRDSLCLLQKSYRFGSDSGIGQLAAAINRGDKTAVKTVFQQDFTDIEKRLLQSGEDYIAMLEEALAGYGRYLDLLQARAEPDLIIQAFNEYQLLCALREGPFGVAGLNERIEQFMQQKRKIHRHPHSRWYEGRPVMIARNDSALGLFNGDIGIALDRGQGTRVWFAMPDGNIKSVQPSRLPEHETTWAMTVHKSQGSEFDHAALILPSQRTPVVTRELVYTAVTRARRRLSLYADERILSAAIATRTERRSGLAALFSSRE
Exodeoxyribonuclease V, sequence (P07648 whole entry): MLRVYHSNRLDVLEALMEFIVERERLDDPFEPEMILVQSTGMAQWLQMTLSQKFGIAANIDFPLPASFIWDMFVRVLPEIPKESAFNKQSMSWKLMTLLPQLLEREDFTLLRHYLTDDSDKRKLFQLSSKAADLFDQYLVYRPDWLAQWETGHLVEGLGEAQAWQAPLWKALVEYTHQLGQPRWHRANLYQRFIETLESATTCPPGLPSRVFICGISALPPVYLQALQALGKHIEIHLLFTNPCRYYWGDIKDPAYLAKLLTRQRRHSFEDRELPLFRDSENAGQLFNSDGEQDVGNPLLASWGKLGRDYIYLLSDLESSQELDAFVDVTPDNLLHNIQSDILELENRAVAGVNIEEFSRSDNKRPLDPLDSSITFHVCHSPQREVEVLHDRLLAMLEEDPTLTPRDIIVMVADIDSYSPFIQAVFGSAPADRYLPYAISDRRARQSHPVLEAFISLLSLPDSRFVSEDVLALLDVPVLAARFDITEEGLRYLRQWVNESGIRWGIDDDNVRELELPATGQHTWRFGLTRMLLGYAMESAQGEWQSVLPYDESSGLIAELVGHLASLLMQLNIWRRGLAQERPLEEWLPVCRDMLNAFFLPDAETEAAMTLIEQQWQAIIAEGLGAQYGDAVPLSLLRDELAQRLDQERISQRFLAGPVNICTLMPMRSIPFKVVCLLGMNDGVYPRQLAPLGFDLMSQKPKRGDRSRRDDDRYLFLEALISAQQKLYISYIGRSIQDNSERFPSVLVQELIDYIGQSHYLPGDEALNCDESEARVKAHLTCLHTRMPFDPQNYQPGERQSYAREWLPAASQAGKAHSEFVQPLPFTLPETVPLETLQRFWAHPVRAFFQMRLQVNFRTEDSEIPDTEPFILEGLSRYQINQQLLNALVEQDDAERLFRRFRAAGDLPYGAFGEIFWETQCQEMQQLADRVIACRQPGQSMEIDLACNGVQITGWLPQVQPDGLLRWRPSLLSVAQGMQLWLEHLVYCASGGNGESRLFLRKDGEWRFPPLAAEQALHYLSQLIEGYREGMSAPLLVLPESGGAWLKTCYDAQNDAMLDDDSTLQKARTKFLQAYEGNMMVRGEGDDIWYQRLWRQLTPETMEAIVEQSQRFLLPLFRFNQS
Exodeoxyribonuclease V, sequence (P08394 whole entry): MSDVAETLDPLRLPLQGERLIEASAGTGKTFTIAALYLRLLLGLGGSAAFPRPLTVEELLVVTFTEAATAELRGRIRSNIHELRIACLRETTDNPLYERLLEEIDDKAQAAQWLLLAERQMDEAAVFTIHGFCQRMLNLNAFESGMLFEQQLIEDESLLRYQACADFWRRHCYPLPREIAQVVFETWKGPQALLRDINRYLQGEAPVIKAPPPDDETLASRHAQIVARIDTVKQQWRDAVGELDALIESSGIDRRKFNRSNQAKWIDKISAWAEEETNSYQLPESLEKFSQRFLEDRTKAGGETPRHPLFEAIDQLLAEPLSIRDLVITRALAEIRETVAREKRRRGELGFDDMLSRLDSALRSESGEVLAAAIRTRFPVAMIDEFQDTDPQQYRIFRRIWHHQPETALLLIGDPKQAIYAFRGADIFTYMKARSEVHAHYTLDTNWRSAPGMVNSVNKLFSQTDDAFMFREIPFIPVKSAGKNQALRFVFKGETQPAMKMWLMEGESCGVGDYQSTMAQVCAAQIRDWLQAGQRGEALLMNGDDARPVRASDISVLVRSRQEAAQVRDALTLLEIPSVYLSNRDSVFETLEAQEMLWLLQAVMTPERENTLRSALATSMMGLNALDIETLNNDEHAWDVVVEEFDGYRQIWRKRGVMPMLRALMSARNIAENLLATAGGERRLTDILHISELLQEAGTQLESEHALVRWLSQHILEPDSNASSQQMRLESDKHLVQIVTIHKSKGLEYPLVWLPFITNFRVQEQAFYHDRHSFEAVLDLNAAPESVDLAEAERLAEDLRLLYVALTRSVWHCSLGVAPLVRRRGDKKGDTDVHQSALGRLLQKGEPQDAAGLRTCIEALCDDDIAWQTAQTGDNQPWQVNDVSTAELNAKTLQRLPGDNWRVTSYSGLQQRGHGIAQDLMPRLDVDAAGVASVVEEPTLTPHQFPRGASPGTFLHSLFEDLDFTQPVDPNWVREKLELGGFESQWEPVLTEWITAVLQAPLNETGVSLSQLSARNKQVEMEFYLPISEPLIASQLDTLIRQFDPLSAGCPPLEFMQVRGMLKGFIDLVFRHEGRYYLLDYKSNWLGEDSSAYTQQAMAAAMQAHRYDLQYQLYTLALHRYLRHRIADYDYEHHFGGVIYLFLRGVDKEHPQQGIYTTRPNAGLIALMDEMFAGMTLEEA

[5] = target: T2, Zinc finger protein mex-5 (Caenorhabditis elegans, UniProt Q9XUB2); assay: potency of MEX-5 RNA-binding blockers – biochemical, C. elegans, fluorescence polarization, dose response (AID 1960)
T2 sequence (Q9XUB2 whole entry): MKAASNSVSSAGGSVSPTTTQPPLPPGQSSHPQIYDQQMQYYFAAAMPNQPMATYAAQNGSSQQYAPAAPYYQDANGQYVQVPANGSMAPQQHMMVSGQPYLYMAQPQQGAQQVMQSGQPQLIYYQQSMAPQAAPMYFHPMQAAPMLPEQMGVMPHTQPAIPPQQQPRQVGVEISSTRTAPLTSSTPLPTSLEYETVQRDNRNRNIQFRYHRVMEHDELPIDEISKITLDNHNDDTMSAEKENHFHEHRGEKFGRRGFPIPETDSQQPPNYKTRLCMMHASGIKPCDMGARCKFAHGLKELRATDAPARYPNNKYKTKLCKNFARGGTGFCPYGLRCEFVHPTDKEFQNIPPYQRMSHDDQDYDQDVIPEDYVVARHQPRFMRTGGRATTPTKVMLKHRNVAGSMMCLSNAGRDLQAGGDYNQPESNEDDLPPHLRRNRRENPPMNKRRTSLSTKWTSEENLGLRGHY

[6] = target: T3, RNA-binding protein pos-1 (Caenorhabditis elegans, UniProt G5EF15); assay: disruptors of C. elegans POS-1 RNA interaction – biochemical, fluorescence polarization, dose response (AID 1964);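 also: purified POS-1 fused to maltose binding protein made in E. coli; potency of compounds blocking POS-1 binding to fluorescent RNA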
T3 sequence (G5EF15 whole entry): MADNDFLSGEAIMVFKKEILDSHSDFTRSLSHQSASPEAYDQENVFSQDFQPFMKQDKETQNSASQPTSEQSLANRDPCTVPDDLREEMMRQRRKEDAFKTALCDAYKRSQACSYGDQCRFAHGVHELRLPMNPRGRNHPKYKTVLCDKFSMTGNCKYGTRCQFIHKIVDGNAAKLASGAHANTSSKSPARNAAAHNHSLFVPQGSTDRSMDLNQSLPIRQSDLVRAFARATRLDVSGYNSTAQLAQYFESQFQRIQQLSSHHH

[7] = Counterscreen for AddAB inhibitors: absorbance-based bacterial cell-based high throughput dose response assay for inhibitors of bacterial viability. [Related pubchem assays (depositor defined):AID435030, AID449728, AID449731, AID488942, AID488955, AID488956]; format: functional
[8] = antibacterial activity against E. coli NEB5alpha – luminescence, counter-screen for MEX-5/POS-1 RNA-binding inhibitor project, dose response (AID 1959); format: functional
[9] = target: T4, Streptokinase A (Streptococcus pyogenes serotype M1, UniProt P10520); assay: viability-normalized secreted streptokinase activity reduction – plasminogen activation absorbance, OD405, dose response (AID 1914); format: functional, Streptococcus pyogenes M1 GAS;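 also: secreted streptokinase activity via plasminogen activation per viability signal from cell pellet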
T4 sequence (P10520 whole entry): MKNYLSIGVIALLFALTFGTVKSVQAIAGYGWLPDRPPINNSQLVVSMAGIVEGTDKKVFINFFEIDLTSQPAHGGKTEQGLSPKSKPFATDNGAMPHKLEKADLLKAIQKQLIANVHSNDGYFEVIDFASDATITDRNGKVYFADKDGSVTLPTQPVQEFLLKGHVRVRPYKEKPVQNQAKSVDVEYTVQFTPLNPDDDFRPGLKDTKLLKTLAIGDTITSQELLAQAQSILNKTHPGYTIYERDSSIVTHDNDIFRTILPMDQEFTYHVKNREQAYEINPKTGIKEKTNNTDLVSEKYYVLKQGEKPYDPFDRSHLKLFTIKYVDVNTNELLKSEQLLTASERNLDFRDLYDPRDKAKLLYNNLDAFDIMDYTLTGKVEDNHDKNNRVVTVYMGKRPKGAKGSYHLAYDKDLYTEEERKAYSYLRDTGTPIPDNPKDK

[10] = target: T5, Small ubiquitin-related modifier 1 (Homo sapiens, UniProt P63165); assay: SUMO1 protein-protein binding blockers, potency – biochemical, FRET, dose response (AID 624383); format: functional; conditions: read-out: IC50_Mean
T5 sequence (P63165 whole entry): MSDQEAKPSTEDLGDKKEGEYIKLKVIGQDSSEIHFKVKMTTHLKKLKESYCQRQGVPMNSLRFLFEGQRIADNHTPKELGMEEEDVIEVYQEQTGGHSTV

[11] = target: T6, Calpain-2 catalytic subunit (Sus scrofa, UniProt P43367); assay: m-calpain protease blockers, concentration series – biochemical, fluorogenic peptide substrate, dose response (AID 1420); format: functional
T6 sequence (P43367 whole entry): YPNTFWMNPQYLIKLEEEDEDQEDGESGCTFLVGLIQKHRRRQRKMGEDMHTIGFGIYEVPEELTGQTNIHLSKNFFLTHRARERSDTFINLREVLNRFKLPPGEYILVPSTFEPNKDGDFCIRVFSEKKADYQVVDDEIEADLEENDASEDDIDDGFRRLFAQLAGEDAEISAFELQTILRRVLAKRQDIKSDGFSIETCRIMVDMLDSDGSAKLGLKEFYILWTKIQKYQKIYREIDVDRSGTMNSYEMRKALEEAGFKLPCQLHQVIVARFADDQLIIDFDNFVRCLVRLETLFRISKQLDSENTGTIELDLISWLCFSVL

[12] = system: Streptococcus; assay: GAS UMAA2166 growth inhibition – luminescence, BacTiterGlo, counter-screen for streptokinase expression inhibitor project, dose response (AID 1915); format: functional, organism-based;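 also: potency for reduction of bacterial viability or growth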
[13] = system: Streptococcus sp. 'group A'; assay: Streptococcus pyogenes SK(-)GAS viability under kanamycin – luminescence, BacTiterGlo, confirmation, counter-screen for streptokinase expression inhibitor project, dose response (AID 1900); format: functional, organism-based
[14] = target: T7, Small ubiquitin-related modifier 2 (Homo sapiens, UniProt P61956); assay: SUMO2 binding disruption by SUMO1 hits – biochemical, FRET, human SUMO2, uHTS hits, selectivity assay for SUMO1 interaction inhibitor project, dose response (AID 624384); format: functional; conditions: read-out: IC50_Mean
T7 sequence (P61956 whole entry): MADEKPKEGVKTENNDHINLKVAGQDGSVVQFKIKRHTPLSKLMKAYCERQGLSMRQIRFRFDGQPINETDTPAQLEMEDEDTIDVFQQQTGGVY

[15] = target: T8, Dual specificity protein phosphatase 3 (Homo sapiens, UniProt P51452); assay: VHR1 phosphatase inhibitors, primary screen, biochemical, absorbance, uHTS (AID 1654)
T8 sequence (P51452 whole entry): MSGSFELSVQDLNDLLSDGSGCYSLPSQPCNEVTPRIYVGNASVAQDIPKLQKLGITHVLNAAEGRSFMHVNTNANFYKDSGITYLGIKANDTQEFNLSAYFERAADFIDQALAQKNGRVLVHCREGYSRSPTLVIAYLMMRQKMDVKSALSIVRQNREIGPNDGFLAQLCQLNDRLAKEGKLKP

[16] = target: T9, Dual specificity protein phosphatase 6 (Rattus norvegicus, UniProt Q64346); assay: inhibition of rat DUSP6 enzyme activity – biochemical, in vitro, primary screen (AID 425)
T9 sequence (Q64346 whole entry): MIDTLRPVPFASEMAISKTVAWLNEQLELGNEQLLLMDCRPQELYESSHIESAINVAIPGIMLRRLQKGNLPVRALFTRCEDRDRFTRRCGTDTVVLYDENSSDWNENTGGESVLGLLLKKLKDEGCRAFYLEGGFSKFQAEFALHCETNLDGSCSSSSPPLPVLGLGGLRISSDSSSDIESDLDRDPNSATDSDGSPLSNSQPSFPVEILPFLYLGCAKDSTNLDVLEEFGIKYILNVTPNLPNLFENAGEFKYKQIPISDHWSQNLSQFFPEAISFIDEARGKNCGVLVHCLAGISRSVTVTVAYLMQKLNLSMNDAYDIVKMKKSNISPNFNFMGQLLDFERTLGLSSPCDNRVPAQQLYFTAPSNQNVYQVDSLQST

[17] = target: Genome polyprotein (dengue virus type 2, UniProt P29990); assay: flavivirus cap methylation enzyme inhibition – biochemical, confirmation dose response, primary screen (AID 588689); format: functional
[18] = target: T5, Small ubiquitin-related modifier 1; assay: SUMO1 protein interaction blockers, potency – biochemical, fluorescence polarization, uHTS hits, dose response (AID 624382); format: functional; conditions: read-out: IC50_Mean
[19] = target: T8, Dual specificity protein phosphatase 3; assay: VHR1 phosphatase inhibitors, biochemical (AID 1878)
[20] = target: T7, Small ubiquitin-related modifier 2; assay: disruption of SUMO2 interaction with SIM peptide – biochemical, fluorescence polarization, uHTS hits, selectivity assay for SUMO1 interaction inhibitor project, dose response (AID 624385); format: functional; conditions: read-out: IC50_Mean

Lysine-specific demethylase 4C, sequence (Q9H3R0 whole entry): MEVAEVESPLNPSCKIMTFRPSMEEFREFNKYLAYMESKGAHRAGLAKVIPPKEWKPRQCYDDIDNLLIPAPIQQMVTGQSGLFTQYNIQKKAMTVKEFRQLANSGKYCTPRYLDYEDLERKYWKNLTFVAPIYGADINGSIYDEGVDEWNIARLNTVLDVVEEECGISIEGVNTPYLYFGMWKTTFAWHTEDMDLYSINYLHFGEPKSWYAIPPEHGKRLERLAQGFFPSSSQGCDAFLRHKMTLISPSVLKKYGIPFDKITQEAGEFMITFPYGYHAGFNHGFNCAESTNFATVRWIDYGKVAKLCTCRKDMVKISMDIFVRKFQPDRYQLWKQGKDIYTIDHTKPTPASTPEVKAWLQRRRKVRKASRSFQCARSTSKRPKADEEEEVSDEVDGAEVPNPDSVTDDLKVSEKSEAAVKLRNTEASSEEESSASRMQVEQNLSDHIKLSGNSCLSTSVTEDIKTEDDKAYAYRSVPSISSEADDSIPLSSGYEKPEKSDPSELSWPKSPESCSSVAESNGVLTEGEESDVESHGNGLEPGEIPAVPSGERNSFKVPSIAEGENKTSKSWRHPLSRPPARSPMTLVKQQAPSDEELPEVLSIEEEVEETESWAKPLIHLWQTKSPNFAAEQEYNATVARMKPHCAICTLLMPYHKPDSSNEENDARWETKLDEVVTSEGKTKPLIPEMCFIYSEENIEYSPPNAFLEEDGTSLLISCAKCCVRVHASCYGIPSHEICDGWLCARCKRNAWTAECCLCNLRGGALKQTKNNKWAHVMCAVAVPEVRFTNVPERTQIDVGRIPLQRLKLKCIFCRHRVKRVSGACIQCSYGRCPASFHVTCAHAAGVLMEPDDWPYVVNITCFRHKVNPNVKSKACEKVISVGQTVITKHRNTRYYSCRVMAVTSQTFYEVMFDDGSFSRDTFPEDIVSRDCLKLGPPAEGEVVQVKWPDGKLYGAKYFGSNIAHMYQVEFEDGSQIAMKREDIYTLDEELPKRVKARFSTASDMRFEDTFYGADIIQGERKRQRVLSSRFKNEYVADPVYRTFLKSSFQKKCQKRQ

In the case of CCOC(=O)C1=C(C)NC(=O)NC1c1c(C)nn(-c2ccccc2)c1Cl (stereo not given), the AC50 [1] is reported as 1.22 µM (active), the AC50 [2] is reported as 8.63 µM (active) and the IC50 [3] is reported as 5.4 µM (active).

For COc1ccc2[nH]c3c(c2c1)CCNC3c1ccc([N+](=O)[O-])o1 (stereo not given), the IC50 [4] was > 119 µM (inactive), the EC50 [5] was 4.34 µM (inconclusive) and the EC50 [6] was 5.82 µM (inconclusive). For the same compound, the IC50 [7] was > 119 µM (inactive) and the EC50 [8] was 34.1 µM (active).

In the case of CSc1nc(SCC(=O)O)c2sc3nc(-c4ccccc4)c4c(c3c2n1)CCC4, the EC50 [9] is reported as 7.33 µM (active), the IC50 [10] is reported as 5.16 µM (active) and the IC50 [11] is reported as 3.74 µM (not active). The EC50 [12] was 6.54 µM (active), the EC50 [13] was 1.41 µM (active) and the IC50 [14] was 5.26 µM (active). The IC50 [15] was 5.06 µM (active), the IC50 [16] was 96.5 µM (active) and the IC50 [17] was 48.9 µM (active). For the same compound, the IC50 [18] was 2.06 µM (active), the IC50 [19] was 3.72 µM (active) and the IC50 [20] was 5.38 µM (active).
